Values joined by “and” are separate entries in the source; they are usually repeats but may differ in a detail not shown here. Equal entries are not always repeated.
Columns and labels:
[1] = biological target: T1, N-demethylase (Ndm: NdmA and NdmB subunits) (Pseudomonas putida, UniProt H9N289+H9N290); experiment: Methylxanthine N-demethylase activity assay with purified Ndm plus partially purified Ccr; type: biochemical, Pseudomonas putida CBB5; settings: for product formed from paraxanthine: 7.4 mU / 7.4 units of Ndm, 90 minutes; for Products identified: same products at 500 and 200 μM substrate; for Relative N-demethylase activity: relative to paraxanthine
T1 construct: lane 3, natural Ndm purified from P. putida CBB5; made in house; host or cells: purified from the natural strain Pseudomonas putida CBB5 (DEAE, Phenyl and Q Sepharose); not recombinant
T1 sequence (H9N289 1-351): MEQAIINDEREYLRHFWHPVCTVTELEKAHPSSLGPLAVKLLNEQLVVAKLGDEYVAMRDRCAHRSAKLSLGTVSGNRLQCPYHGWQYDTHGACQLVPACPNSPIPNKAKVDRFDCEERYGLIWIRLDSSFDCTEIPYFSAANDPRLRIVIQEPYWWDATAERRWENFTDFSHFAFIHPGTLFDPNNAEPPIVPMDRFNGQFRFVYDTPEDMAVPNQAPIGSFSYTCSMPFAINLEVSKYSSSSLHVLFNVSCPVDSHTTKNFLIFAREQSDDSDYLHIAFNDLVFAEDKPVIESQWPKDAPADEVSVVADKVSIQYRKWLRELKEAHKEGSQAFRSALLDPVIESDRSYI
T1 sequence (H9N290 1-355): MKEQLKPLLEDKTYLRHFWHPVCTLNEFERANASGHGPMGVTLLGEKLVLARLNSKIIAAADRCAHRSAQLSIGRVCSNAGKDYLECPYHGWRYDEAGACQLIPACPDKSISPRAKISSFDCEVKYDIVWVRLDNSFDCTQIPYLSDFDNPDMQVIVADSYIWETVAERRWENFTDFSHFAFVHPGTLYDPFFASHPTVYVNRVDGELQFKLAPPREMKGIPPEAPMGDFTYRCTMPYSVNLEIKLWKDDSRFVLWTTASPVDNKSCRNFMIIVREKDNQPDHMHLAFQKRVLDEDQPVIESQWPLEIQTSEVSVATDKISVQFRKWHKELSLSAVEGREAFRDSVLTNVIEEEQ
Method: Methylxanthine N-demethylase activity assay contained, in 1-mL total volume, 0.5 mM methylxanthine, 1 mM NADH, 50 μM Fe(NH4)2(SO4)2, and an appropriate amount of Ndm (0.08-7.5 mg protein, depending on purity of the protein) in 50 mM KPi buffer. Approximately 4 U of partially purified Ccr was added to reaction mixture when assaying Ndm in Phenyl Sepharose and Q Sepharose eluant-fractions (Ccr was not added to the enzyme reaction mixture when assaying Ndm activity in DEAE Sepharose eluant-fractions because Ccr co-eluted with Ndm). The reaction mixture was incubated at 30° C. with 300 rpm shaking on an incubating microplate shaker (VWR). Periodically, a small aliquot was sampled from the reaction mixture and mixed with equal volume of acetonitrile for quantifying concentrations of methylxanthines and N-demethylated products by HPLC. One unit of N-demethylase activity was defined as the consumption of one μmole methylxanthine per minute. When Ndm was coupled with the reductase and ferredoxin components of naphthalene dioxygenase of Pseudomonas sp. strain 9816 (Haigler & Gibson, 1990a; Haigler & Gibson, 1990b), 30 and 100 μg of the respective proteins were used. Spinach ferredoxin reductase and ferredoxin were also substituted for Ccr as described by Subramanian et al. (1979).
Determination of Kinetic Parameters. Apparent kinetic parameters of Ndm were determined by measuring the initial rate of disappearance (vo) of paraxanthine or 7-methylxanthine in 50 mM KPi buffer (pH 7.5) at 30° C. The paraxanthine and 7-methylxanthine concentrations ([S]) used in these experiments were from 20 to 500 μM. Substrates were incubated with Ndm and Ccr under standard conditions for 15 minutes. At 1, 5, 10, and 15 minutes, samples were removed from the reaction mixtures to quantitate substrate concentrations by HPLC. Plots of substrate concentrations against time were used to determine the initial rates of disappearance of substrates which were linear over 15 minutes. The apparent kinetic parameters were determined from Michaelis-Menten plots of Vo against [S] fitted with the equation
Determination of Oxygen Requirement. Oxygen consumption by Ndm during N-demethylation of paraxanthine was determined in a closed reaction vessel equipped with a Clarke-type oxygen electrode (Digitial Modell 0, Rank Brothers Ltd., Cambridge, England). The electrode was calibrated by using glucose oxidase (Sigma) and glucose for consumption of oxygen. Ndm activity assay was performed at 30° C. in a total volume of 1 ml of air-saturated 50 mM KPi buffer (pH 7.5) with 100 μM paraxanthine, 200 μM NADH, 50 μM Fe(NH4)2(SO4)2, 0.2 mg purified Ndm, and 4 U partially purified Ccr. The reaction was initiated by adding Ndm and partially purified Ccr after equilibration of all other reaction components for 3.3 minutes. After 13 minutes, a 100-μL aliquot was withdrawn from the reaction, immediately mixed with equal volume of acetonitrile to stop the enzyme reaction, and analyzed for N-demethylation product by HPLC. Background oxygen consumption, possibly due to NADH oxidase enzyme activity in the partially purified Ccr, was quantitated in control reactions containing all reaction components except paraxanthine.
Formaldehyde Determination. […] Twenty μL Nash reagent was added to 50 μl Ndm reaction sample plus 50 μl acetonitrile. This mixture was incubated at 51° C. for 12 minutes.

NdmA-His6 = biological target: T2, NdmA-His6 (Pseudomonas putida, UniProt H9N289); experiment: Methylxanthine N-demethylase assay and kinetics, NdmA-His6 with His6-NdmD; type: biochemical, Pseudomonas putida CBB5
T2 construct: made in house; host or cells: E. coli BL21(DE3)
T2 sequence (H9N289 1-351): T1 sequence (H9N289 1-351)
Method: (§1) Methylxanthine N-demethylase activity assay contained, in 1-ml total volume, 0.5 mM methylxanthine, 1 mM NADH, 50 μM Fe(NH4)2(SO4)2, and an appropriate amount of NdmA-His6 or NdmB-His6 (7.4 μg-2.5 mg protein depending on substrate specificity) in 50 mM KPi buffer (pH 7.5). Approximately 4 U of partially purified reductase, prepared as described previously (Summers et al., 2011) or 59 U of purified His6-NdmD was added to reaction mixture. Catalase from bovine liver (4,000 U) was also added to reactions containing His6-NdmD. The reaction mixture was incubated at 30° C. with 300 rpm shaking on an incubating microplate shaker (VWR, Radnor, Pa.). Periodically, a small aliquot was sampled from the reaction mixture and mixed with equal volume of acetonitrile for quantifying concentrations of methylxanthines and N-demethylated products by HPLC. One unit of N-demethylase activity was defined as the consumption of one […] methylxanthine per minute.
(§2) Apparent kinetic parameters of NdmA-His6 and NdmB-His6 were determined by measuring the initial rate of disappearance (vo) of methylxanthines in 50 mM KPi buffer (pH 7.5) at 30° C. The initial substrate concentrations (ESI) used in these experiments were from 25 to 500 μM. Substrates were incubated with His6-NdmD plus either NdmA-His6 or NdmB-His6 under standard conditions for 15 minutes. At 1, 5, 10, and 15 minutes, samples were removed from the reaction mixtures to quantitate substrate concentrations by HPLC. Plots of substrate concentrations against time were used to determine the initial rates of disappearance of substrates which were linear over 15 minutes. The apparent kinetic parameters were determined from Michaelis-Menten plots of vo against [S] fitted with the equation

NdmB-His6 = biological target: T3, NdmB-His6 (Pseudomonas putida, UniProt H9N290); experiment: Methylxanthine N-demethylase assay and kinetics, NdmB-His6 with His6-NdmD; type: biochemical, Pseudomonas putida CBB5
T3 construct: made in house; host or cells: E. coli BL21(DE3)
T3 sequence (H9N290 1-355): T1 sequence (H9N290 1-355)
Method: as §1, §2

His6-NdmD = His6-NdmD (Pseudomonas putida, UniProt H9N291); experiment: N-demethylase activity of purified His6-NdmD alone; type: biochemical, Pseudomonas putida CBB5
[2] = test system: recombinant E. coli cells that contain NdmABCD; experiment: Conversion by recombinant E. coli cells without NdmE; type: cell-based; settings: absence of NdmE
[3] = test system: E. coli cells expressing NdmABCDE; experiment: Conversion by recombinant E. coli cells with NdmE; type: cell-based
[4] = test system: cell extracts prepared from P. putida CBB5; experiment: NADH-dependent N-demethylase activity of CBB5 cell extracts; type: biochemical, Pseudomonas putida CBB5; settings: 0.5 mM substrate, 7.2 mg mL^−1 protein
Pseudomonas putida CBB5 = experiment: Resting cell degradation of caffeine in coffee extract, black tea extract and buffer by CBB5; type: cell-based
bacteria = settings: 0.1% concentration; cited from earlier work

His6-NdmD, sequence (H9N291 1-588 with tags or gaps): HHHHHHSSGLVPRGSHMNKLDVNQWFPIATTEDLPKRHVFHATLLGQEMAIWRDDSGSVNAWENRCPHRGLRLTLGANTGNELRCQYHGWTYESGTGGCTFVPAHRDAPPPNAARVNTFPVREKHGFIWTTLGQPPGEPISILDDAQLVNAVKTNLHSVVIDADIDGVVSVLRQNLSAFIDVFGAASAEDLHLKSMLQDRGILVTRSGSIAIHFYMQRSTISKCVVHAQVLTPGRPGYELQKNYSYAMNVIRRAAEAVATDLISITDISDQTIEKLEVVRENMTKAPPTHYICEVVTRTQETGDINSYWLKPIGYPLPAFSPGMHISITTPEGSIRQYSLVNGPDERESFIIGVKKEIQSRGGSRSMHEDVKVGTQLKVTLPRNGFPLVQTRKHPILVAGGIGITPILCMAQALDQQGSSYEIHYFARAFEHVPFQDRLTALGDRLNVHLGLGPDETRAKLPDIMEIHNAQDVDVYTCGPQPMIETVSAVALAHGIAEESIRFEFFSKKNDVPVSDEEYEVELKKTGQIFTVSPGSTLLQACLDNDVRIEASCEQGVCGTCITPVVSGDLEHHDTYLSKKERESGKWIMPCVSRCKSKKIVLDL

Q: For `Cn1cnc2[nH]c(=O)[nH]c(=O)c21` [7-Methylxanthine, 7-methylxanthine], which “product formed from paraxanthine” value [1] is on record?
A: 126.9 ± 6.40 µM

Q: And the “product formed from paraxanthine” value ([1]; listed as 7-methylxanthine)?
A: 126.9 ± 6.4 µM

Q: What about the N-demethylation product present ([1]; from paraxanthine, after 13 minutes) of the same compound?
A: Approximately 39.9 μM

Q: What about the Products identified [1] of the same compound?
A: xanthine

Q: And the “Relative N-demethylase activity” value ([1]; substrate conc. 200 μM)?
A: 664.2 ± 61.1

Q: What about the “Relative N-demethylase activity” value ([1]; substrate conc. 500 μM) of the same compound?
A: 455.7 ± 17.6

Q: And the “N-demethylase activity” value (NdmA-His6; NdmA)?
A: inactive

Q: And the Km (NdmA-His6; NdmA-His6, 30° C., pH 7.5, ∞ where no activity)?
A: ∞

Q: And the “N-demethylase activity” value (NdmB-His6; NdmB)?
A: no activity

Q: And the Km (NdmB-His6; NdmB-His6, 30° C., pH 7.5, ∞ where no activity)?
A: ∞

Q: And the “activity of purified His6-NdmD” value (His6-NdmD)?
A: no activity

Q: What about the conversion by cells [2] of the same compound?
A: remained untouched

Q: And the conversion product [3]?
A: xanthine

Q: What about the “N-demethylation by NdmC fraction” value (NdmC) of the same compound?
A: sole substrate

Q: Which results are given for `Cn1c(=O)c2c(ncn2C)n(C)c1=O` [Caffeine, 1,3,7-trimethylxanthine]?
A: Products identified [1]: paraxanthine, and theobromine, and 7-methylxanthine, and xanthine; Relative N-demethylase activity ([1]; substrate conc. 200 μM): 48.2 ± 4.8; Relative N-demethylase activity ([1]; substrate conc. 500 μM): 30.8 ± 1.7; Product (NdmA-His6; NdmA-His6): Theobromine; Product (NdmA-His6; NdmA-His6, listed as caffeine): theobromine; Product (NdmB-His6; NdmB-His6): Paraxanthine; degradation rate compared with paraxanthine [4]: significantly slower; time for caffeine degradation (Pseudomonas putida CBB5; 18 mM (highest concentration) caffeine in buffer solution): 2 h; time for caffeine degradation (Pseudomonas putida CBB5; 18 mM caffeine in coffee extract): 6 h; time for caffeine degradation (Pseudomonas putida CBB5; diluted black tea extract (1 mM caffeine)): ≤ 0.667 h; time for caffeine disappearance (Pseudomonas putida CBB5; undiluted black tea extract (8 mM caffeine)): 40 min; conversion by cells [2]: 7-methylxanthine from caffeine, but not xanthine; conversion product [3]: xanthine; N-demethylation by NdmC fraction (NdmC): not N-demethylated; effect on protein synthesis in bacteria and yeast (bacteria): inhibits protein synthesis

Source: US8951752B2, “N-demethyase genes and uses thereof” (priority 2011, dated 2015)
